Reference: ChEMBL document CHEMBL1152860, “Synthesis and antiproliferative activity of 3-amino-N-phenyl-1H-indazole-1-carboxamides” (2009)
Active and inactive are the calls of the source. No cut-off for these calls is given here.

Key:
HT-29 = test: Growth inhibition of human HT-29 cells after 48 hrs by SRB assay; assay type: functional; conditions: HT-29, 48 h
HL-60(TB) = test: Growth inhibition of human HL-60(TB) cells after 48 hrs by SRB assay; assay type: functional; conditions: HL-60, 48 h
K562 [1] = test: Growth inhibition of human K562 cells after 48 hrs by SRB assay; assay type: functional; conditions: K562, 48 h
MOLT-4 = test: Growth inhibition of human MOLT4 cells after 48 hrs by SRB assay; assay type: functional; conditions: MOLT-4, 48 h
RPMI-8226 = test: Growth inhibition of human RPMI8226 cells after 48 hrs by SRB assay; assay type: functional; conditions: RPMI-8226, 48 h
SR = test: Growth inhibition of human SR cells after 48 hrs by SRB assay; assay type: functional
A549 = test: Growth inhibition of human A549 cells after 48 hrs by SRB assay; assay type: functional; conditions: A549, 48 h
EKVX = test: Growth inhibition of human EKVX cells after 48 hrs by SRB assay; assay type: functional
HOP-62 = test: Growth inhibition of human HOP62 cells after 48 hrs by SRB assay; assay type: functional; conditions: HOP-62, 48 h
HOP-92 = test: Growth inhibition of human HOP92 cells after 48 hrs by SRB assay; assay type: functional; conditions: HOP-92, 48 h
NCI-H226 = test: Growth inhibition of human NCI-H226 cells after 48 hrs by SRB assay; assay type: functional; conditions: NCI-H226, 48 h
NCI-H23 = test: Growth inhibition of human NCI-H23 cells after 48 hrs by SRB assay; assay type: functional; conditions: NCI-H23, 48 h
NCI-H322M = test: Growth inhibition of human NCI-H322M cells after 48 hrs by SRB assay; assay type: functional
NCI-H460 = test: Growth inhibition of human NCI-H460 cells after 48 hrs by SRB assay; assay type: functional; conditions: NCI-H460, 48 h
NCI-H522 = test: Growth inhibition of human NCI-H522 cells after 48 hrs by SRB assay; assay type: functional; conditions: NCI-H522, 48 h
COLO 205 = test: Growth inhibition of human COLO205 cells after 48 hrs by SRB assay; assay type: functional; conditions: COLO 205, 48 h
HCC 2998 = test: Growth inhibition of human HCC2998 cells after 48 hrs by SRB assay; assay type: functional; conditions: HCC 2998, 48 h
HCT-116 = test: Growth inhibition of human HCT116 cells after 48 hrs by SRB assay; assay type: functional; conditions: HCT-116, 48 h
HCT-15 = test: Growth inhibition of human HCT15 cells after 48 hrs by SRB assay; assay type: functional; conditions: HCT-15, 48 h
LOX IMVI = test: Growth inhibition of human LOXIMVI cells after 48 hrs by SRB assay; assay type: functional
Malme-3M = test: Growth inhibition of human MALME-3M cells after 48 hrs by SRB assay; assay type: functional
M14 = test: Growth inhibition of human M14 cells after 48 hrs by SRB assay; assay type: functional; conditions: M14, 48 h
SK-MEL-2 = test: Growth inhibition of human SK-MEL-2 cells after 48 hrs by SRB assay; assay type: functional; conditions: SK-MEL-2, 48 h
SK-MEL-28 = test: Growth inhibition of human SK-MEL-28 cells after 48 hrs by SRB assay; assay type: functional; conditions: SK-MEL-28, 48 h
SK-MEL-5 = test: Growth inhibition of human SK-MEL-5 cells after 48 hrs by SRB assay; assay type: functional; conditions: SK-MEL-5, 48 h
UACC-257 = test: Growth inhibition of human UACC257 cells after 48 hrs by SRB assay; assay type: functional; conditions: UACC-257, 48 h
UACC-62 = test: Growth inhibition of human UACC62 cells after 48 hrs by SRB assay; assay type: functional; conditions: UACC-62, 48 h
IGROV-1 = test: Growth inhibition of human IGROV1 cells after 48 hrs by SRB assay; assay type: functional; conditions: IGROV-1, 48 h
OVCAR-3 = test: Growth inhibition of human OVCAR-3 cells after 48 hrs by SRB assay; assay type: functional; conditions: OVCAR-3, 48 h
OVCAR-4 = test: Growth inhibition of human OVCAR4 cells after 48 hrs by SRB assay; assay type: functional; conditions: OVCAR-4, 48 h
OVCAR-5 = test: Growth inhibition of human OVCAR5 cells after 48 hrs by SRB assay; assay type: functional; conditions: OVCAR-5, 48 h
OVCAR-8 = test: Growth inhibition of human OVCAR8 cells after 48 hrs by SRB assay; assay type: functional; conditions: OVCAR-8, 48 h
SK-OV-3 = test: Growth inhibition of human SKOV3 cells after 48 hrs by SRB assay; assay type: functional; conditions: SK-OV-3, 48 h
786-0 = test: Growth inhibition of human 786-0 cells after 48 hrs by SRB assay; assay type: functional; conditions: 786-0, 48 h
A498 = test: Growth inhibition of human A498 cells after 48 hrs by SRB assay; assay type: functional; conditions: A498, 48 h
ACHN = test: Growth inhibition of human ACHN cells after 48 hrs by SRB assay; assay type: functional
CAKI-1 = test: Growth inhibition of human Caki1 cells after 48 hrs by SRB assay; assay type: functional; conditions: CAKI-1, 48 h
RXF 393 = test: Growth inhibition of human […] cells after 48 hrs by SRB assay; assay type: functional; conditions: RXF 393, 48 h
SN12C = test: Growth inhibition of human SN12C cells after 48 hrs by SRB assay; assay type: functional
TK-10 = test: Growth inhibition of human TK10 cells after 48 hrs by SRB assay; assay type: functional; conditions: TK-10, 48 h
UO-31 = test: Growth inhibition of human UO31 cells after 48 hrs by SRB assay; assay type: functional; conditions: UO-31, 48 h
PC-3 = test: Growth inhibition of human PC3 cells after 48 hrs by SRB assay; assay type: functional; conditions: PC-3, 48 h
DU-145 = test: Growth inhibition of human DU145 cells after 48 hrs by SRB assay; assay type: functional; conditions: DU-145, 48 h
MCF7 = test: Growth inhibition of human MCF7 cells after 48 hrs by SRB assay; assay type: functional; conditions: MCF7, 48 h
NCI/ADR-RES = test: Growth inhibition of human NCI/ADR-RES cells after 48 hrs by SRB assay; assay type: functional
MDA-MB-231 = test: Growth inhibition of human MDA-MB-231 cells after 48 hrs by SRB assay; assay type: functional; conditions: MDA-MB-231, 48 h
[2] = Growth inhibition of human Hs 578T cells after 48 hrs by SRB assay; assay type: functional
MDA-MB-435 = test: Growth inhibition of human MDA-MB-435 cells after 48 hrs by SRB assay; assay type: functional; conditions: MDA-MB-435, 48 h
BT-549 = test: Growth inhibition of human BT549 cells after 48 hrs by SRB assay; assay type: functional; conditions: BT-549, 48 h
T47D = test: Growth inhibition of human T47D cells after 48 hrs by SRB assay; assay type: functional
K562 [3] = test: Cell cycle arrest in human K562 cells assessed as accumulation at S phase at 42.7 uM after 24 hrs using propidium iodide staining by flow cytometry; assay type: functional, cell-based
K562 [4] = test: Cell cycle arrest in human K562 cells assessed as accumulation at G2/M phase at 42.7 uM after 24 hrs using propidium iodide staining by flow cytometry; assay type: functional, cell-based
KM12 = test: Growth inhibition of human KM12 cells after 48 hrs by SRB assay; assay type: functional; conditions: KM12, 48 h
SW-620 = test: Growth inhibition of human SW620 cells after 48 hrs by SRB assay; assay type: functional; conditions: SW-620, 48 h
SF-268 = test: Growth inhibition of human SF268 cells after 48 hrs by SRB assay; assay type: functional; conditions: SF-268, 48 h
SF-295 = test: Growth inhibition of human SF295 cells after 48 hrs by SRB assay; assay type: functional; conditions: SF-295, 48 h
SF-539 = test: Growth inhibition of human SF539 cells after 48 hrs by SRB assay; assay type: functional; conditions: SF-539, 48 h
SNB-19 = test: Growth inhibition of human SNB19 cells after 48 hrs by SRB assay; assay type: functional; conditions: SNB-19, 48 h
SNB-75 = test: Growth inhibition of human SNB75 cells after 48 hrs by SRB assay; assay type: functional; conditions: SNB-75, 48 h
U-251 = test: Growth inhibition of human U251 cells after 48 hrs by SRB assay; assay type: functional; conditions: U-251, 48 h
K562 [5] = test: Growth inhibition of drug-resistant human K562 cells after 48 hrs by SRB assay; assay type: functional; conditions: K562, 48 h

## O=C(Nc1ccccc1OC(F)(F)F)Nc1n[nH]c2ccccc12
HT-29
  GI50: 26.1 µM
HL-60(TB)
  GI50: 17.9 µM
K562 [1]
  GI50: 42.7 µM
MOLT-4
  GI50: 59.1 µM
RPMI-8226
  GI50: 52 µM
SR
  GI50: 48.9 nM
  TGI: 24 µM
SR; read-out: LC50 (the source's name)
  CC50: > 100 µM
A549
  GI50: 15.7 µM
EKVX
  GI50: 48.2 µM
HOP-62
  GI50: 19.6 µM
HOP-92
  GI50: 12.9 µM
NCI-H226
  GI50: 26.1 µM
NCI-H23
  GI50: 50 µM
NCI-H322M
  GI50: 81.6 µM
NCI-H460
  GI50: 15 µM
NCI-H522
  GI50: 33.9 µM
COLO 205
  GI50: 71.8 µM
HCC 2998
  GI50: 55.9 µM
HCT-116
  GI50: 16.2 µM
HCT-15
  GI50: 36.2 µM
LOX IMVI
  GI50: 22.5 µM
Malme-3M
  GI50: 76.9 µM
M14
  GI50: 22.5 µM
SK-MEL-2
  GI50: 81.4 µM
SK-MEL-28
  GI50: 42.2 µM
SK-MEL-5
  GI50: 28.7 µM
UACC-257
  GI50: 47.2 µM
UACC-62
  GI50: 31.7 µM
IGROV-1
  GI50: 4.59 µM
OVCAR-3
  GI50: 90.8 µM
OVCAR-4
  GI50: 37.7 µM
OVCAR-5
  GI50: 34.3 µM
OVCAR-8
  GI50: 29.6 µM
SK-OV-3
  GI50: > 100 µM
786-0
  GI50: 38.7 µM
A498
  GI50: > 100 µM
ACHN
  GI50: 31.1 µM
CAKI-1
  GI50: 31 µM
RXF 393
  GI50: 24.3 µM
SN12C
  GI50: 72.5 µM
TK-10
  GI50: 37.9 µM
UO-31
  GI50: 17.4 µM
PC-3
  GI50: 31.4 µM
DU-145
  GI50: 51.7 µM
MCF7
  GI50: 1750 nM
NCI/ADR-RES
  GI50: 44.2 µM
MDA-MB-231
  GI50: 17.9 µM
[2]
  GI50: 19.4 µM
MDA-MB-435
  GI50: 51.5 µM
BT-549
  GI50: 76.4 µM
T47D
  GI50: 37.5 µM
K562 [3]
  Activity: Active
K562 [4]
  Activity: Active
KM12
  GI50: 23.4 µM
SW-620
  GI50: 36.7 µM
SF-268
  GI50: 16.2 µM
SF-295
  GI50: 39 µM
SF-539
  GI50: 30.5 µM
SNB-19
  GI50: 78.3 µM
SNB-75
  GI50: 17.5 µM
U-251
  GI50: 31.1 µM

## CCc1nc2cc(Cl)ccc2c(=O)n1-c1n[nH]c2ccccc12
K562 [5]
  GI50: 11.7 µM
K562 [1]
  GI50: 10.7 µM
